Legend:
[1] = cited from earlier work; for pI: amino acid isoelectric point; for pKa (—COOH group) / pKa (—NH3 group): amino acid
[2] = Spectrocolorimeter (CM-5) measurement of samples before and after adsorption and desorption measurement; type: physicochemical
Method: Changes in the samples between before and after the measurement of the adsorption and desorption isotherms were measured using Konica Minolta, Inc.'s spectrocolorimeter (CM-5). The measurement conditions were reflection measurement and the SCI method, and the measurements were taken with the observation window of a 3-mm φ target mask covered with the glass container after the adsorption and desorption measurement. A blank tube, with no sample placed in it, was also subjected to the measurement, through which a measurement in a transparent state was determined. The measurements are converted values for a 10° field of view and a D65 light source.

[3] = for State of sample after the end of the measurement: FIG. 2, after adsorption and desorption measurement; for Deliquescence: conclusion from isotherm and appearance; for Appearance after storage: tubes tightly closed, stored 9 days at normal temperature after measurement
Method: For the measurement, MicrotracBEL (MicrotracBEL Corporation) BELSORP MAX III was used. As a pretreatment of samples, the samples were vacuum-dried at 105° C. until the leakage was 1 Pa/min or less.
The measurement conditions were set as follows. • At relative pressures (humidity levels) from 0.025 to 0.3: measurements are taken at relative pressure intervals of 0.025 • At relative pressures (humidity levels) beyond 0.3 to 0.95: measurements are taken at relative pressure intervals of 0.05
After reaching a relative pressure of 0.95: measurements are taken at equal relative pressure intervals until a relative pressure of 0.1 (For TSP, however, the relative pressure limit was set to approximately 0.5 because measurement accuracy is reduced due to a prolonged measurement time.)
The equilibration conditions were that at relative pressures of 0.9 or lower, pressure changes should be 0.3% or smaller variations over 300 sec, and that at relative pressures of 0.9 or higher, pressure changes should be 0.3 Pa, as a pressure value, or smaller variations over 300 sec.

[4] = after adsorption and desorption measurement
[5] = before adsorption and desorption measurement
[6] = 9 days after adsorption and desorption measurement

C[C@H](N)C(=O)O [Alanine]
pI [1]: 6
pKa (—COOH group) [1]: 2.34

N=C(N)NCCC[C@H](N)C(=O)O [Arginine, arginine]
L* (D65) [2, 4]: 94.8
a* (D65) [2, 4]: −0.2
b* (D65) [2, 4]: 0.1
L* (D65) [2, 5]: 99.0
a* (D65) [2, 5]: −0.1
b* (D65) [2, 5]: 0.4
pI [1]: 10.76
pKa (—COOH group) [1]: 2.17

NC(=O)C[C@H](N)C(=O)O [Asparagine]
pI [1]: 5.41
pKa (—COOH group) [1]: 2.02

N[C@@H](CC(=O)O)C(=O)O [Aspartic acid]
pI [1]: 2.77

N[C@@H](CS)C(=O)O [Cysteine]
pI [1]: 5.07
pKa (—NH3 group) [1]: 10.28

NCCCC(=O)O [GABA, γ-aminobutyric acid]
State of sample after the end of the measurement [3]: transitioned to a transparent liquid state
Deliquescence [3]: have deliquescence
Appearance after storage [3]: maintained the degree of transparency
L* (D65) [2, 6]: 33.1
a* (D65) [2, 6]: −0.3
L* (D65) [2, 4]: 26.5
a* (D65) [2, 4]: −0.3
b* (D65) [2, 4]: −0.9
L* (D65) [2, 5]: 87.1
a* (D65) [2, 5]: −0.1
pI [1]: 7.3
pKa (—COOH group) [1]: 4.23

N[C@@H](CCC(=O)O)C(=O)O [Glutamic acid]
L* (D65) [2, 6]: 53.6
a* (D65) [2, 6]: −0.7
pI [1]: 3.22

NCC(=O)O [Glycine]
pI [1]: 5.97

N[C@@H](Cc1c[nH]cn1)C(=O)O [Histidine]
pI [1]: 7.59

O=C(O)[C@@H]1C[C@@H](O)CN1 [Hydroxyproline]
pKa (—COOH group) [1]: 1.82
pKa (—NH3 group) [1]: 9.65

CC[C@H](C)[C@H](N)C(=O)O [Isoleucine]
pI [1]: 6.02
pKa (—COOH group) [1]: 2.36

NCCCC[C@H](N)C(=O)O [Lysine]
pI [1]: 9.74
pKa (—COOH group) [1]: 2.18

N[C@@H](CCC(=O)O)C(=O)[O-].[Na+] [MSG, Na glutamate]
State of sample after the end of the measurement [3]: transitioned to a transparent liquid state
Deliquescence [3]: have deliquescence
Appearance after storage [3]: became a whitened film form
L* (D65) [2, 4]: 33.7
a* (D65) [2, 4]: −0.1
b* (D65) [2, 4]: −0.2
L* (D65) [2, 5]: 84.8
a* (D65) [2, 5]: −0.2
b* (D65) [2, 5]: 1.1

CSCC[C@H](N)C(=O)O [Methionine]
pI [1]: 5.74
pKa (—COOH group) [1]: 2.28
pKa (—NH3 group) [1]: 9.21

N[C@@H](Cc1ccccc1)C(=O)O [Phenylalanine]
pI [1]: 5.48
pKa (—COOH group) [1]: 1.83
pKa (—NH3 group) [1]: 9.13

O=C(O)[C@@H]1CCCN1 [Proline]
pI [1]: 6.3

O=C1CC[C@@H](C(=O)O)N1 [Pyroglutamic acid]
pI [1]: 5.68

N[C@@H](CO)C(=O)O [Serine]
pI [1]: 5.68

O=P([O-])([O-])[O-].[Na+].[Na+].[Na+] [TSP, trisodium phosphate, reference compound]
L* (D65) [2, 4]: 92.4
a* (D65) [2, 4]: −0.1
b* (D65) [2, 4]: 0.1
L* (D65) [2, 5]: 98.5
a* (D65) [2, 5]: 0.0
b* (D65) [2, 5]: 0.5

C[C@@H](O)[C@H](N)C(=O)O [Threonine]
pI [1]: 5.6
pKa (—COOH group) [1]: 2.09

N[C@@H](Cc1c[nH]c2ccccc12)C(=O)O [Tryptophan]
pI [1]: 5.89
pKa (—COOH group) [1]: 2.83

N[C@@H](Cc1ccc(O)cc1)C(=O)O [Tyrosine]
pI [1]: 5.66

CC(C)[C@H](N)C(=O)O [Valine]
pI [1]: 5.96
pKa (—NH3 group) [1]: 9.62

From patent publication US20250194663A1, “ORAL POUCH PRODUCT CONTAINING AMINO ACID OR SALT THEREOF” (Japan Tobacco Inc., priority 2022, published 2025)
